Legend:
Type in all cases: cell-based, mouse
[1] = test system: α7 integrin (LacZ reporter in α7+/LacZ myotubes); assay: Myotube α7 integrin FDG assay (Burkin assay in myotubes, 96-well); conditions: for Burkin Assay in Myotubes, value relative to DMSO: SU9516 analogs, 96-well, N=3-6
[2] = test system: α7 integrin (LacZ reporter in α7βgal+/− myoblasts); assay: Myoblast α7+/LacZ integrin FDG assay (Burkin assay in myoblasts, 96-well); conditions: 96-well; for Burkin Assay in Myoblasts, signal relative to DMSO: α7+/LacZ myoblasts; for Burkin Assay in Myoblasts, value relative to DMSO: SU9516 analogs, N=3-6
[3] = test system: β-galactosidase in CMV-LacZ C2C12 myotubes; assay: CMV-LacZ secondary screen in C2C12 myotubes (β-Gal stabilizing assay); conditions: for CMV-LACZ in Myotubes, signal relative to DMSO: C2C12 CMV-LacZ myotubes, fold relative to DMSO; for CMV-LACZ in Myotubes, value relative to DMSO: SU9516 analogs, C2C12 CMV-LacZ, N=2
Procedure, shortened: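 CMV-LacZ C2C12 line (clonal, FDG-screened); myoblasts/myotubes dosed 0.5–40 μM (0.5, 1, 5, 10, 20, 40 μM); n=2 per point; β-gal stabilization read-out.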

[4] = test system: β-galactosidase in CMV-LacZ C2C12 myoblasts; assay: CMV-LacZ secondary screen in C2C12 myoblasts (β-Gal stabilizing assay); conditions: for CMV-LACZ in Myoblasts (β-galactosidase activity relative to DMSO): CMV-LacZ C2C12 myoblasts; for CMV-LACZ in Myoblasts, value relative to DMSO: SU9516 analogs, C2C12 CMV-LacZ, N=2
Procedure, shortened: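 C2C12 myoblasts stably carrying a linearized CMV-driven LacZ construct, clone chosen by β-gal level in the myoblast FDG assay. Compounds tested in 96-well dose-response at 0.5, 1, 5, 10, 20 and 40 μM, N=2 replicates per point, to detect β-gal stabilization.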

**Q.** What does the source list for CCOC(=O)c1cc(C(=O)OCC)c(=O)[nH]c1SCc1ccccc1 [MLS001008109-01]?
**A.** Burkin Assay in Myotubes, α7 integrin LacZ reporter signal relative to DMSO ([1]; 0.5 uM): 0.9247; Burkin Assay in Myotubes, α7 integrin LacZ reporter signal relative to DMSO ([1]; 1 uM): 0.9146; Burkin Assay in Myotubes, α7 integrin LacZ reporter signal relative to DMSO ([1]; 5 uM): 1.182; Burkin Assay in Myotubes, α7 integrin LacZ reporter signal relative to DMSO ([1]; 10 uM): 0.9335; Burkin Assay in Myotubes, α7 integrin LacZ reporter signal relative to DMSO ([1]; 20 uM): 0.8264; Burkin Assay in Myotubes, α7 integrin LacZ reporter signal relative to DMSO ([1]; 40 uM): 0.6103; Burkin Assay in Myoblasts, signal relative to DMSO ([2]; 0.5 uM): 0.8481; Burkin Assay in Myoblasts, signal relative to DMSO ([2]; 1 uM): 0.78; Burkin Assay in Myoblasts, signal relative to DMSO ([2]; 5 uM): 1.002; Burkin Assay in Myoblasts, signal relative to DMSO ([2]; 10 uM): 0.8626; Burkin Assay in Myoblasts, signal relative to DMSO ([2]; 20 uM): 0.826; Burkin Assay in Myoblasts, signal relative to DMSO ([2]; 40 uM): 0.8306; CMV-LACZ in Myotubes, signal relative to DMSO ([3]; 0.5 uM): 1.0621; CMV-LACZ in Myotubes, signal relative to DMSO ([3]; 1 uM): 1.0168; CMV-LACZ in Myotubes, signal relative to DMSO ([3]; 5 uM): 0.9839; CMV-LACZ in Myotubes, signal relative to DMSO ([3]; 10 uM): 0.9289; CMV-LACZ in Myotubes, signal relative to DMSO ([3]; 20 uM): 1.0756; CMV-LACZ in Myotubes, signal relative to DMSO ([3]; 40 uM): 1.0600; CMV-LACZ in Myoblasts (β-galactosidase activity relative to DMSO) ([4]; 0.5 uM): 0.9542; CMV-LACZ in Myoblasts (β-galactosidase activity relative to DMSO) ([4]; 1 uM): 1.1138; CMV-LACZ in Myoblasts (β-galactosidase activity relative to DMSO) ([4]; 5 uM): 0.9228; CMV-LACZ in Myoblasts (β-galactosidase activity relative to DMSO) ([4]; 10 uM): 1.2178; CMV-LACZ in Myoblasts (β-galactosidase activity relative to DMSO) ([4]; 20 uM): 0.8730; CMV-LACZ in Myoblasts (β-galactosidase activity relative to DMSO) ([4]; 40 uM): 0.7619

**Q.** What does the source list for N#C/C(=C1/C(=O)Nc2ccc(Br)cc21)c1ccccn1 [MLS001013431-01]?
**A.** Burkin Assay in Myotubes, value relative to DMSO ([1]; 0.5 uM): 1.238; Burkin Assay in Myotubes, value relative to DMSO ([1]; 1 uM): 1.0097; Burkin Assay in Myotubes, value relative to DMSO ([1]; 5 uM): 0.8507; Burkin Assay in Myotubes, value relative to DMSO ([1]; 10 uM): 0.8506; Burkin Assay in Myotubes, value relative to DMSO ([1]; 20 uM): 0.7376; Burkin Assay in Myotubes, value relative to DMSO ([1]; 40 uM): 0.7069; Burkin Assay in Myoblasts, value relative to DMSO ([2]; 0.5 uM): 1.202; Burkin Assay in Myoblasts, value relative to DMSO ([2]; 1 uM): 1; Burkin Assay in Myoblasts, value relative to DMSO ([2]; 5 uM): 0.7077; Burkin Assay in Myoblasts, value relative to DMSO ([2]; 10 uM): 0.5311; Burkin Assay in Myoblasts, value relative to DMSO ([2]; 20 uM): 0.4522; Burkin Assay in Myoblasts, value relative to DMSO ([2]; 40 uM): 0.3362; CMV-LACZ in Myotubes, value relative to DMSO ([3]; 0.5 uM): 0.8638; CMV-LACZ in Myotubes, value relative to DMSO ([3]; 1 uM): 1.1257; CMV-LACZ in Myotubes, value relative to DMSO ([3]; 5 uM): 0.9388; CMV-LACZ in Myotubes, value relative to DMSO ([3]; 10 uM): 0.9162; CMV-LACZ in Myotubes, value relative to DMSO ([3]; 20 uM): 1.0682; CMV-LACZ in Myotubes, value relative to DMSO ([3]; 40 uM): 1.2059; CMV-LACZ in Myoblasts, value relative to DMSO ([4]; 0.5 uM): 0.9906; CMV-LACZ in Myoblasts, value relative to DMSO ([4]; 1 uM): 1.0640; CMV-LACZ in Myoblasts, value relative to DMSO ([4]; 5 uM): 0.8366; CMV-LACZ in Myoblasts, value relative to DMSO ([4]; 10 uM): 0.6673; CMV-LACZ in Myoblasts, value relative to DMSO ([4]; 20 uM): 0.5904; CMV-LACZ in Myoblasts, value relative to DMSO ([4]; 40 uM): 0.6670

**Q.** COc1ccc(NC(=O)C2(N(C(=O)Cn3nnnc3N)c3ccc(OC)cc3)CCCCC2)cc1 [MLS001030268-01] was tested. Which “Burkin Assay in Myotubes, α7 integrin LacZ reporter signal relative to DMSO” value ([1]; 0.5 uM) did it give?
**A.** The value was 1.076.

**Q.** And the “Burkin Assay in Myotubes, α7 integrin LacZ reporter signal relative to DMSO” value ([1]; 1 uM)?
**A.** Its value is 1.161.

**Q.** And the “Burkin Assay in Myotubes, α7 integrin LacZ reporter signal relative to DMSO” value ([1]; 5 uM)?
**A.** Its value is 1.213.

**Q.** What about the “Burkin Assay in Myotubes, α7 integrin LacZ reporter signal relative to DMSO” value ([1]; 10 uM) of the same compound?
**A.** The value was 0.9249.

**Q.** And the “Burkin Assay in Myotubes, α7 integrin LacZ reporter signal relative to DMSO” value ([1]; 20 uM)?
**A.** Its value is 0.6277.

**Q.** And the “Burkin Assay in Myotubes, α7 integrin LacZ reporter signal relative to DMSO” value ([1]; 40 uM)?
**A.** Its value is 0.7606.

**Q.** And the “Burkin Assay in Myoblasts, signal relative to DMSO” value ([2]; 0.5 uM)?
**A.** Its value is 1.239.

**Q.** What about the “Burkin Assay in Myoblasts, signal relative to DMSO” value ([2]; 1 uM) of the same compound?
**A.** Its value is 1.143.

**Q.** What about the “Burkin Assay in Myoblasts, signal relative to DMSO” value ([2]; 5 uM) of the same compound?
**A.** The value was 1.49.

**Q.** And the “Burkin Assay in Myoblasts, signal relative to DMSO” value ([2]; 10 uM)?
**A.** Its value is 0.8716.

**Q.** What about the “Burkin Assay in Myoblasts, signal relative to DMSO” value ([2]; 20 uM) of the same compound?
**A.** Its value is 0.726.

**Q.** What about the “Burkin Assay in Myoblasts, signal relative to DMSO” value ([2]; 40 uM) of the same compound?
**A.** The value was 0.6069.

**Q.** What about the “CMV-LACZ in Myotubes, signal relative to DMSO” value ([3]; 0.5 uM) of the same compound?
**A.** Its value is 0.8830.

**Q.** What about the “CMV-LACZ in Myotubes, signal relative to DMSO” value ([3]; 1 uM) of the same compound?
**A.** Its value is 1.1711.

**Q.** What about the “CMV-LACZ in Myotubes, signal relative to DMSO” value ([3]; 5 uM) of the same compound?
**A.** The value was 1.1318.

**Q.** And the “CMV-LACZ in Myotubes, signal relative to DMSO” value ([3]; 10 uM)?
**A.** Its value is 1.1128.

**Q.** And the “CMV-LACZ in Myotubes, signal relative to DMSO” value ([3]; 20 uM)?
**A.** Its value is 0.9365.

**Q.** What about the “CMV-LACZ in Myotubes, signal relative to DMSO” value ([3]; 40 uM) of the same compound?
**A.** Its value is 0.9506.

**Q.** And the “CMV-LACZ in Myoblasts (β-galactosidase activity relative to DMSO)” value ([4]; 0.5 uM)?
**A.** Its value is 1.0809.

**Q.** What about the “CMV-LACZ in Myoblasts (β-galactosidase activity relative to DMSO)” value ([4]; 1 uM) of the same compound?
**A.** The value was 1.1550.

**Q.** What about the “CMV-LACZ in Myoblasts (β-galactosidase activity relative to DMSO)” value ([4]; 5 uM) of the same compound?
**A.** The value was 1.1347.

**Q.** And the “CMV-LACZ in Myoblasts (β-galactosidase activity relative to DMSO)” value ([4]; 10 uM)?
**A.** The value was 1.1787.

**Q.** What about the “CMV-LACZ in Myoblasts (β-galactosidase activity relative to DMSO)” value ([4]; 20 uM) of the same compound?
**A.** Its value is 0.7467.

**Q.** What about the “CMV-LACZ in Myoblasts (β-galactosidase activity relative to DMSO)” value ([4]; 40 uM) of the same compound?
**A.** Its value is 0.5556.
